Source: ChEMBL document CHEMBL3885861, “Open TG-GATES”

Species on record: Rattus norvegicus
Experiment: Open TG-GATES - Regimen: Daily Repeat
Assay type: toxicity, organism-based, Sprague-Dawley
Parameters: regimen Daily Repeat, gender Male, age 6 weeks
Conditions: in vivo, po, route gavage; for gamma-GTP / ALP / ALT / AST / CRE / DBIL / GLC / IP / K / LDH / Na / PL / RALB / TBIL / TC / TG / TP: tissue Plasma; for APTT / Bas / Eos / Fbg / Hb / Ht / Lym / MCHC / MCV / Mono / Neu / PT / Plat / RBC / Ret / WBC: tissue Blood; for KIDNEY_L / KIDNEY_R / KIDNEY_TOTAL: tissue Kidney; for LIVER: tissue Liver
[1] = 100 mg/kg, 72 h, dose level Low, time 3 day
[2] = 100 mg/kg, […], dose level Low, time 7 day
[3] = 100 mg/kg, […], dose level Low, time 14 day
[4] = 100 mg/kg, […], dose level Low, time 28 day

Q: For C#C[C@]1(O)CC[C@H]2[C@@H]3CCC4=Cc5oncc5C[C@]4(C)[C@H]3CC[C@@]21C [DANAZOL], which gamma-GTP (0 mg/kg, […], dose level Control, time 28 day) is on record?
A: 3.4 IU/L

Q: And the TERMINAL_BW [1]?
A: 235.6 g

Q: And the APTT [1]?
A: 23.6 s

Q: What about the Bas [1] of the same compound?
A: 0%

Q: And the Eos [1]?
A: 1%

Q: What about the Fbg [1] of the same compound?
A: 344.8 mg/dL

Q: What about the Hb [1] of the same compound?
A: 13.5 g/dL

Q: What about the Ht [1] of the same compound?
A: 41%

Q: What about the Lym [1] of the same compound?
A: 77%

Q: What about the MCHC [1] of the same compound?
A: 32.8%

Q: And the MCV [1]?
A: 63 fL

Q: What about the Mono [1] of the same compound?
A: 2.8%

Q: What about the Neu [1] of the same compound?
A: 19%

Q: What about the PT [1] of the same compound?
A: 16.3 s

Q: And the Plat [1]?
A: 115.1 x10_4/uL

Q: What about the RBC [1] of the same compound?
A: 651.2 x10_4/ul

Q: And the Ret [1]?
A: 6.3%

Q: What about the WBC [1] of the same compound?
A: 91.5 x10_2/uL

Q: And the KIDNEY_L [1]?
A: 1 g

Q: What about the KIDNEY_R [1] of the same compound?
A: 1 g

Q: What about the KIDNEY_TOTAL [1] of the same compound?
A: 2.1 g

Q: What about the LIVER [1] of the same compound?
A: 11.7 g

Q: What about the ALP [1] of the same compound?
A: 1493.6 IU/L

Q: And the ALT [1]?
A: 45.6 IU/L

Q: What about the AST [1] of the same compound?
A: 72.4 IU/L

Q: And the CRE [1]?
A: 0.2 mg/dL

Q: And the DBIL [1]?
A: 0 mg/dL

Q: And the GLC [1]?
A: 187.2 mg/dL

Q: And the IP [1]?
A: 7 mg/dL

Q: And the K [1]?
A: 4.3 meq/L

Q: And the LDH [1]?
A: 168.2 IU/L

Q: What about the Na [1] of the same compound?
A: 143 meq/L

Q: And the PL [1]?
A: 131.2 mg/dL

Q: And the RALB [1]?
A: 3.1 g/dL

Q: And the TBIL [1]?
A: 0 mg/dL

Q: What about the TC [1] of the same compound?
A: 55.2 mg/dL

Q: And the TG [1]?
A: 161.4 mg/dL

Q: And the TP [1]?
A: 5.7 g/dL

Q: And the gamma-GTP [1]?
A: 1.8 IU/L

Q: What about the TERMINAL_BW [2] of the same compound?
A: 261.4 g

Q: And the TERMINAL_BW [3]?
A: 310 g

Q: And the TERMINAL_BW [4]?
A: 405.6 g

Q: What about the APTT [2] of the same compound?
A: 25 s

Q: And the Bas [2]?
A: 0%

Q: And the Eos [2]?
A: 0.4%

Q: And the Fbg [2]?
A: 318 mg/dL

Q: What about the Hb [2] of the same compound?
A: 13.7 g/dL

Q: And the Ht [2]?
A: 40.4%

Q: What about the Lym [2] of the same compound?
A: 84%

Q: What about the MCHC [2] of the same compound?
A: 33.9%

Q: And the MCV [2]?
A: 60.1 fL

Q: And the Mono [2]?
A: 2%

Q: What about the Neu [2] of the same compound?
A: 13%

Q: What about the PT [2] of the same compound?
A: 15.7 s

Q: What about the Plat [2] of the same compound?
A: 117.6 x10_4/uL

Q: What about the RBC [2] of the same compound?
A: 672.6 x10_4/ul

Q: And the Ret [2]?
A: 5.1%

Q: And the WBC [2]?
A: 112.4 x10_2/uL

Q: What about the APTT [3] of the same compound?
A: 26.6 s

Q: What about the Bas [3] of the same compound?
A: 0%

Q: What about the Eos [3] of the same compound?
A: 0.8%

Q: What about the Fbg [3] of the same compound?
A: 354.4 mg/dL

Q: What about the Hb [3] of the same compound?
A: 14.5 g/dL

Q: And the Ht [3]?
A: 41.1%

Q: And the Lym [3]?
A: 84.8%

Q: What about the MCHC [3] of the same compound?
A: 35.2%

Q: What about the MCV [3] of the same compound?
A: 60.3 fL

Q: And the Mono [3]?
A: 1.8%

Q: And the Neu [3]?
A: 12%

Q: And the PT [3]?
A: 16.2 s

Q: What about the Plat [3] of the same compound?
A: 134.9 x10_4/uL

Q: What about the RBC [3] of the same compound?
A: 681.2 x10_4/ul

Q: What about the Ret [3] of the same compound?
A: 3.3%

Q: What about the APTT [4] of the same compound?
A: 26.9 s

Q: What about the Bas [4] of the same compound?
A: 0%

Q: And the Eos [4]?
A: 1%

Q: What about the Fbg [4] of the same compound?
A: 326.6 mg/dL

Q: What about the Hb [4] of the same compound?
A: 14.5 g/dL

Q: And the Ht [4]?
A: 42.4%

Q: What about the Lym [4] of the same compound?
A: 78.8%

Q: What about the MCHC [4] of the same compound?
A: 34.2%

Q: What about the MCV [4] of the same compound?
A: 56.1 fL

Q: And the Mono [4]?
A: 1.6%

Q: What about the Neu [4] of the same compound?
A: 17.6%

Q: And the PT [4]?
A: 17.1 s

Q: And the Plat [4]?
A: 109.1 x10_4/uL

Q: And the RBC [4]?
A: 756.2 x10_4/ul

Q: What about the Ret [4] of the same compound?
A: 2.4%

Q: What about the WBC [4] of the same compound?
A: 85.7 x10_2/uL

Q: What about the KIDNEY_L [2] of the same compound?
A: 1.1 g

Q: What about the KIDNEY_R [2] of the same compound?
A: 1.1 g

Q: And the KIDNEY_TOTAL [2]?
A: 2.2 g

Q: And the KIDNEY_L [3]?
A: 1.3 g

Q: What about the KIDNEY_R [3] of the same compound?
A: 1.3 g

Q: What about the KIDNEY_TOTAL [3] of the same compound?
A: 2.6 g

Q: And the KIDNEY_L [4]?
A: 1.5 g

Q: And the KIDNEY_R [4]?
A: 1.5 g

Q: What about the KIDNEY_TOTAL [4] of the same compound?
A: 2.9 g

Q: And the LIVER [2]?
A: 12.7 g

Q: And the LIVER [3]?
A: 14.9 g

Q: What about the LIVER [4] of the same compound?
A: 18.3 g

Q: And the ALP [2]?
A: 1505.8 IU/L

Q: What about the ALT [2] of the same compound?
A: 39.6 IU/L

Q: And the AST [2]?
A: 65 IU/L

Q: What about the CRE [2] of the same compound?
A: 0.2 mg/dL

Q: And the DBIL [2]?
A: 0 mg/dL

Q: What about the GLC [2] of the same compound?
A: 181.8 mg/dL

Q: And the IP [2]?
A: 6.2 mg/dL

Q: And the K [2]?
A: 4.4 meq/L

Q: What about the LDH [2] of the same compound?
A: 139.6 IU/L

Q: What about the Na [2] of the same compound?
A: 143.2 meq/L

Q: And the PL [2]?
A: 128.4 mg/dL

Q: And the RALB [2]?
A: 3 g/dL

Q: And the TBIL [2]?
A: 0.002 mg/dL

Q: What about the TC [2] of the same compound?
A: 51.8 mg/dL

Q: And the TG [2]?
A: 140.4 mg/dL

Q: And the TP [2]?
A: 5.6 g/dL

Q: And the gamma-GTP [2]?
A: 2.2 IU/L

Q: What about the ALP [3] of the same compound?
A: 1681.6 IU/L

Q: What about the ALT [3] of the same compound?
A: 38.4 IU/L

Q: What about the AST [3] of the same compound?
A: 57.4 IU/L

Q: And the CRE [3]?
A: 0.2 mg/dL

Q: What about the DBIL [3] of the same compound?
A: 0 mg/dL

Q: What about the GLC [3] of the same compound?
A: 182.8 mg/dL

Q: What about the IP [3] of the same compound?
A: 6.8 mg/dL

Q: And the K [3]?
A: 4.1 meq/L

Q: And the LDH [3]?
A: 154 IU/L

Q: What about the Na [3] of the same compound?
A: 143.6 meq/L

Q: What about the PL [3] of the same compound?
A: 132.8 mg/dL

Q: And the RALB [3]?
A: 3.1 g/dL

Q: What about the TBIL [3] of the same compound?
A: 0 mg/dL

Q: And the TC [3]?
A: 49 mg/dL

Q: And the TG [3]?
A: 177.6 mg/dL

Q: And the TP [3]?
A: 6 g/dL

Q: What about the gamma-GTP [3] of the same compound?
A: 2.6 IU/L

Q: What about the ALP [4] of the same compound?
A: 1348.8 IU/L

Q: What about the ALT [4] of the same compound?
A: 39.8 IU/L

Q: And the AST [4]?
A: 59.2 IU/L

Q: What about the CRE [4] of the same compound?
A: 0.2 mg/dL

Q: And the DBIL [4]?
A: 0 mg/dL

Q: What about the GLC [4] of the same compound?
A: 191.4 mg/dL

Q: And the IP [4]?
A: 6.1 mg/dL

Q: And the K [4]?
A: 3.9 meq/L

Q: What about the LDH [4] of the same compound?
A: 121.8 IU/L

Q: What about the Na [4] of the same compound?
A: 142.8 meq/L

Q: What about the PL [4] of the same compound?
A: 142.4 mg/dL

Q: What about the RALB [4] of the same compound?
A: 3 g/dL

Q: What about the TBIL [4] of the same compound?
A: 0 mg/dL

Q: What about the TC [4] of the same compound?
A: 46.6 mg/dL

Q: And the TG [4]?
A: 334.4 mg/dL

Q: What about the TP [4] of the same compound?
A: 6.2 g/dL

Q: What about the gamma-GTP [4] of the same compound?
A: 3.2 IU/L
